Experimental data reported in patent US10681909B2, “Herbicidal triazoles” (FMC Corporation, priority 2014, dated 2020).

Legend:
wheat, spring [1] = assay: Test D preemergence; format: in vivo, Triticum aestivum; settings: for Plant response rating: Wheat, Spring: scale 0 to 100
Text: (§1) Seeds of plant species selected from bluegrass (annual bluegrass, Poa annua), blackgrass (Alopecurus myosuroides), canarygrass (Phalaris minor), chickweed (common chickweed, Stellaria media), galium (catchweed bedstraw, Galium aparine), bromegrass, down (downy bromegrass, Bromus tectorum), Russian thistle (Salsola kali), field poppy (Papaver rhoeas), field violet (Viola arvensis), foxtail, green (green foxtail, Setaria viridis), deadnettle (henbit deadnettle, Lamium amplexicaule), ryegrass, Ital. (Italian ryegrass, Lolium multiflorum), kochia (Kochia scoparia), lambsquarters (Chenopodium album), oilseed rape (Brassica napus), pigweed (Amaranthus retroflexus), chamomile (scentless chamomile, Matricaria inodora), speedwell (bird's-eye speedwell, Veronica persica), barley, spring (spring barley, Hordeum vulgare), wheat, spring (spring wheat, Triticum aestivum), buckwheat, wild (wild buckwheat, Polygonum convolvulus), wild mustard (Sinapis arvensis), oat, wild (wild oat, Avena fatua), radish, wild (wild radish, Raphanus raphanistrum), […]), barley, winter (winter barley, Hordeum vulgare), and wheat, winter (winter wheat, Triticum aestivum) were planted into a silt loam soil and treated preemergence with test chemicals formulated in a non-phytotoxic solvent mixture which included a surfactant. At the same time, these species were planted in pots containing Sunshine Redi-Earth® planting medium comprising spaghnum peat moss, vermiculite, starter nutrients and dolomitic limestone and treated with postemergence applications of the test chemicals formulated in the same manner. Plants ranged in height from 2 to 18 cm (1- to 4-leaf stage). Treated plants and controls were maintained in a controlled growth environment for 14 to 21 d after which time all species were compared to controls and visually evaluated. […] A dash (-) response means no test result.

wheat, winter [2] = assay: Test D preemergence; format: in vivo, Triticum aestivum; settings: for Plant response rating: Wheat, Winter: scale 0 to 100
Text: as §1

nutsedge, yellow = assay: Test C preemergence; format: in vivo, Cyperus esculentus; settings: for Nutsedge, Yellow plant response rating (0 to 100): Preemergence, visual rating after 13 to 15 d
Text: (§2) Seeds of plant species selected from blackgrass (Alopecurus myosuroides), ryegrass, Italian (Italian ryegrass, Lolium multiflorum), wheat (winter wheat, Triticum aestivum), galium (catchweed bedstraw, Galium aparine), corn (Zea mays), crabgrass, large (large crabgrass, Digitaria sanguinalis), foxtail, giant, (giant foxtail, Setaria faberii), johnsongrass (Sorghum halepense), lambsquarters (Chenopodium album), morningglory (Ipomoea coccinea), nutsedge, yellow (yellow nutsedge, Cyperus esculentus), pigweed (Amaranthus retroflexus), ragweed (common ragweed, Ambrosia elatior), soybean (Glycine max), barnyardgrass (Echinochloa crus-galli), oilseed rape (Brassica napus), waterhemp (common waterhemp, Amaranthus rudis), and velvetleaf (Abutilon theophrasti) were planted into a blend of loam soil and sand and treated preemergence with test chemicals formulated in a non-phytotoxic solvent mixture which included a surfactant. At the same time, plants selected from these crop and weed species and also chickweed (common chickweed, Stellaria media), oat, wild (wild oat, Avena fatua), and kochia (Kochia scoparia), were planted in pots containing Sunshine Redi-Earth® planting medium comprising spaghnum peat moss, vermiculite, starter nutrients and dolomitic limestone and treated with postemergence applications of test chemicals formulated in the same manner. Plants ranged in height from 2 to 18 cm (1- to 4-leaf stage) for postemergence treatments. […] A dash (-) response means no test result.

pigweed = assay: Test C preemergence; format: in vivo, Amaranthus retroflexus; settings: for Plant response rating (scale of 0 to 100 where 0 is no effect and 100 is complete control): Pigweed, preemergence; for Pigweed plant response rating (0 to 100): Preemergence, visual rating after 13 to 15 d
Text: as §2

lambsquarters = assay: Test D preemergence; format: in vivo, Chenopodium album; settings: for Plant response rating: Lambsquarters: scale 0 to 100
Text: as §1

oilseed rape = assay: Test D preemergence; format: in vivo, Brassica napus; settings: for Plant response rating: Oilseed Rape: scale 0 to 100
Text: as §1

barley, spring = assay: Test D postemergence; format: in vivo, Hordeum vulgare; settings: scale 0 to 100
Text: as §1

barley, winter = assay: Test D postemergence; format: in vivo, Hordeum vulgare; settings: scale 0 to 100
Text: as §1

wheat, spring [3] = assay: Test D postemergence; format: in vivo, Triticum aestivum; settings: scale 0 to 100
Text: as §1

wheat, winter [4] = assay: Test D postemergence; format: in vivo, Triticum aestivum; settings: scale 0 to 100
Text: as §1

galium [5] = assay: Test D postemergence; format: in vivo, Galium aparine; settings: scale 0 to 100
Text: as §1

galium [6] = assay: Test A postemergence; format: in vivo, Galium aparine; settings: 0 to 100 scale (0 no effect, 100 complete control), approx. 10 d
Text: Seeds of plant species selected from barnyardgrass (Echinochloa crus-galli), crabgrass, large (large crabgrass, Digitaria sanguinalis), kochia (Kochia scoparia), ragweed (common ragweed, Ambrosia elatior), foxtail, giant (giant foxtail, Setaria faberii), morningglory (Ipomoea spp.), pigweed (Amaranthus retroflexus), velvetleaf (Abutilon theophrasti), ryegrass, Italian (Italian ryegrass, Lolium multiflorum), wheat (Triticum aestivum), and corn (Zea mays) were planted into a blend of loam soil and sand and treated preemergence with a directed soil spray using test chemicals formulated in a non-phytotoxic solvent mixture which included a surfactant.
At the same time, plants selected from these crop and weed species and also blackgrass (Alopecurus myosuroides), and galium (catchweed bedstraw, Galium aparine), were planted in pots containing the same blend of loam soil and sand and treated with postemergence applications of test chemicals formulated in the same manner. Plants ranged in height from 2 to 10 cm and were in the one- to two-leaf stage for the postemergence treatment. Treated plants and untreated controls were maintained in a greenhouse for approximately 10 d, after which time all treated plants were compared to untreated controls and visually evaluated for injury. Plant response ratings, summarized in Table A, are based on a 0 to 100 scale where 0 is no effect and 100 is complete control. A dash (-) response means no test result.

[7] = 16 g ai/ha, 0 is no effect, 100 is complete control

Structure (SMILES)	Plant response rating: Wheat, Spring (wheat, spring [1]; 62 g ai/ha)	Plant response rating: Wheat, Spring (wheat, spring [1]; 125 g ai/ha)	Plant response rating: Wheat, Winter (wheat, winter [2]; 62 g ai/ha)	Plant response rating: Wheat, Winter (wheat, winter [2]; 125 g ai/ha)	Plant response rating: Lambsquarters (lambsquarters; 62 g ai/ha)	Plant response rating: Lambsquarters (lambsquarters; 125 g ai/ha)	Plant response rating: Oilseed Rape (oilseed rape; 62 g ai/ha)	Plant response rating: Oilseed Rape (oilseed rape; 125 g ai/ha)	Plant response rating: Barley, Spring (barley, spring; 31 g ai/ha)	Plant response rating: Barley, Spring (barley, spring; 62 g ai/ha)	Plant response rating: Barley, Spring (barley, spring; 125 g ai/ha)	Plant response rating: Barley, Winter (barley, winter; 31 g ai/ha)	Plant response rating: Barley, Winter (barley, winter; 62 g ai/ha)	Plant response rating: Barley, Winter (barley, winter; 125 g ai/ha)	Plant response rating: Wheat, Spring (wheat, spring [3]; 31 g ai/ha)	Plant response rating: Wheat, Spring (wheat, spring [3]; 62 g ai/ha)	Plant response rating: Wheat, Spring (wheat, spring [3]; 125 g ai/ha)	Plant response rating: Wheat, Winter (wheat, winter [4]; 31 g ai/ha)	Plant response rating: Wheat, Winter (wheat, winter [4]; 62 g ai/ha)	Plant response rating: Wheat, Winter (wheat, winter [4]; 125 g ai/ha)	other results
CCc1nc(-c2ccc(C(F)(F)F)cc2)nn1Cc1ccnc(C(F)(F)F)c1 [Compound 1, 4-[[5-ethyl-3-[4-(trifluoromethyl)phenyl]-1H-1,2,4-triazol-1-yl]methyl]-2-(trifluoromethyl)pyridine]	0	0	0	0	100	100	100	100	20	35	35	20	25	35	20	25	35	15	15	25	Plant response rating: Wheat, Spring (wheat, spring [1]; 250 g ai/ha): 5; Plant response rating: Wheat, Winter (wheat, winter [2]; 250 g ai/ha): 0; Plant response rating (scale of 0 to 100 where 0 is no effect and 100 is complete control) (nutsedge, yellow; Nutsedge, Yellow, preemergence, 250 g ai/ha): 15; Nutsedge, Yellow plant response rating (0 to 100) (nutsedge, yellow; 31 g ai/ha): 0; Nutsedge, Yellow plant response rating (0 to 100) (nutsedge, yellow; 62 g ai/ha): 5; Plant response rating (scale of 0 to 100 where 0 is no effect and 100 is complete control) (pigweed; 125 g ai/ha): 100; Plant response rating (scale of 0 to 100 where 0 is no effect and 100 is complete control) (pigweed; 250 g ai/ha): 100; Pigweed plant response rating (0 to 100) (pigweed; 31 g ai/ha): 100; Pigweed plant response rating (0 to 100) (pigweed; 62 g ai/ha): 100; Plant response rating: Lambsquarters (lambsquarters; 250 g ai/ha): 100; Plant response rating: Oilseed Rape (oilseed rape; 250 g ai/ha): 100; Plant response rating: Barley, Spring (barley, spring; 250 g ai/ha): 40; Plant response rating: Barley, Winter (barley, winter; 250 g ai/ha): 40; Plant response rating: Wheat, Spring (wheat, spring [3]; 250 g ai/ha): 45; Plant response rating: Wheat, Winter (wheat, winter [4]; 250 g ai/ha): 35; Plant response rating: Galium (galium [5]; 31 g ai/ha): 70; Plant response rating: Galium (galium [5]; 62 g ai/ha): 70; Plant response rating: Galium (galium [5]; 125 g ai/ha): 90; Plant response rating: Galium (galium [5]; 250 g ai/ha): 90
COc1nc(-c2ccc(Cl)cc2)nn1Cc1ccnc(C(F)(F)F)c1 [Compound 28]	20	25	25	20	85	95	15	15	20	20	25	15	20	25	15	20	25	20	25	20	Plant response rating (0 to 100), Wheat, Spring (wheat, spring [1]; [7]): 10; Plant response rating (0 to 100), Wheat, Winter (wheat, winter [2]; [7]): 15; Plant response rating, Galium (galium [6]; 125 g ai/ha): 50; Plant response rating, Galium (galium [6]; 500 g ai/ha): 80; Plant response rating (0 to 100), Lambsquarters (lambsquarters; [7]): 75; Plant response rating (0 to 100), Oilseed Rape (oilseed rape; [7]): 10; Plant response rating: Barley, Spring (barley, spring; 16 g ai/ha): 15; Plant response rating: Barley, Winter (barley, winter; 16 g ai/ha): 10; Plant response rating: Wheat, Spring (wheat, spring [3]; 16 g ai/ha): 10; Plant response rating: Wheat, Winter (wheat, winter [4]; 16 g ai/ha): 15; Plant response rating: Galium (galium [5]; 16 g ai/ha): 65; Plant response rating: Galium (galium [5]; 31 g ai/ha): 70; Plant response rating: Galium (galium [5]; 62 g ai/ha): 75; Plant response rating: Galium (galium [5]; 125 g ai/ha): 80
